According to patent publication US20210393539A1, “FERRITIN NANOPARTICLES COMPRISING A CHEMOTHERAPEUTIC AGENT” (INTHENA S.R.L., priority 2018, published 2021):

Experiments:
[1] = system: patient-derived PBMC
Description: FIG. 1: DOX effects on proliferation potential of PBMC from patients under neoadjuvant chemotherapy.
A. Flow cytometry of DOX internalization profile in PBMC isolated from a representative patient before and after DOX parenteral infusion.
B. Quantification of Mean Fluorescence Intensity (MFI) in PBMC isolated from patients. The profiles represent the values of DOX fluorescence in each patient before and after chemotherapy. The histogram reports the mean DOX fluorescence value between all the samples analyzed.
C. Representative image of proliferation analysis of PBMC isolated from BC patients before and after 1 cycle of neoadjuvant chemotherapy with DOX using CFSE assay.
D. Quantification of proliferative index at different days of culture after Concanavalin A stimulation (ConA). The proliferation index is the ratio between proliferating cells and progenitor cells. The absence of proliferation is represented by a proliferative index of 1.
FIG. 2: Characterization of lymphocytes subpopulations that internalize DOX. Flow cytometry immunophenotyping of T-Lymphocytes CD8+ e CD4+ to identify populations that internalize DOX (high, int, low). CM: Central Memory, EM: Effector Memory.

[2] = mouse, in vivo

## COc1cccc2c1C(=O)c1c(O)c3c(c(O)c1C2=O)C[C@@](O)(C(=O)CO)C[C@@H]3O[C@H]1C[C@H](N)[C@H](O)[C@H](C)O1 [DOX, doxorubicin]
[1]; FIG. 2
  DOX uptake by lymphocyte sub-populations: naïve T-cells (CD3+CD8+/CD4+CD45RO−) displayed the highest DOX uptake
[1]; PBMC isolated after chemotherapy (FIG. 1)
  DOX internalization in PBMC: promptly internalized DOX
[1]; after versus before chemotherapy (FIG. 1)
  proliferation in response to mitogenic stimulations: dramatic proliferative impairment
[2]
  cardiomyocyte cross-section area: increase in cardiomyocyte cross-section area
  mitochondria area and cristae morphology: alteration in mitochondria area and cristae morphology
  mitochondria number in heart tissue: increase in mitochondria number
  mitochondrial membrane potential and amount of reduced glutathione: induced alterations
